Values after ≈ are worked out from the molar mass of the structure shown.

For this data set the following is noted: buffer; pH 7.4; 200.0 µM.
As for `Cc1ccc2c(C(=O)CCl)c(C)[nH]c2c1`, the kinetic solubility (usually solubility judged after dilution from a stock solution rather than from solid) stood at 3.4 µg/mL (≈ 15.3 µM).
`CCOc1ccc(OCCC(=O)OCC(=O)NCc2ccccc2)cc1` yielded a solubility (kinetic) of 46.3 µg/mL (≈ 130 µM).
For the compound `CC(C)N(CC(N)=O)C(=O)c1sc2cc(F)ccc2c1Cl`, the kinetic solubility turned out to be 45 µg/mL (≈ 137 µM). The solubility kinetic values of the last two compounds are within 1.5-fold of each other.
Consider `Br.O=C(Cn1c(NCCO)nc2ccccc21)c1ccc(F)cc1`, for which the solubility (kinetic) amounted to 22.4 µg/mL. Against the preceding compound, the solubility kinetic is about 2-fold lower.
Next, `COc1ccc(/C=C/C(=O)NC2CCS(=O)(=O)C2)cc1` (stereo unspecified): more than 44.3 µg/mL.
`Cc1ccc(S(=O)(=O)/N=C(/Nc2ccc([N+](=O)[O-])cc2[N+](=O)[O-])c2ccccc2)cc1` returned a solubility (kinetic) of 5.9 µg/mL (≈ 13.4 µM).
Compound `O=C(COc1ccc2ccc(=O)oc2c1)NC1CCCC1` yielded a kinetic solubility of more than 43.1 µg/mL.
For `Cc1ccc(-c2csc(NC(=O)c3ccccc3Cl)c2C(=O)O)cc1`, the solubility (kinetic) is more than 55.8 µg/mL.
`CCCc1cc(=O)[nH]c(SCC(=O)NCCC2=CCCCC2)n1` gave a solubility (kinetic) of 48.2 µg/mL (≈ 144 µM).
Next, `CCCn1c(=O)c2[nH]c(-c3ccc(S(=O)(=O)O)cc3)nc2n(CCC)c1=O`: more than 58.9 µg/mL.
`COc1ccc(CC(=O)OCC(=O)Nc2ccc(Cl)cc2C)cc1` yielded a kinetic solubility of 9 µg/mL (≈ 25.9 µM).
With `COc1cc(C(=O)N2CCCc3ccccc32)c([N+](=O)[O-])cc1OC`, the solubility (kinetic) is more than 51.4 µg/mL.
In turn, `Cc1ccc(OC(C)C(=O)N(C)Cc2ccccc2)c([N+](=O)[O-])n1` (stereo unspecified) gave a solubility (kinetic) of 46.9 µg/mL (≈ 142 µM).
Regarding `O=C(c1ccccc1)N1CCN(C(=O)c2cccnc2)CC1`, the kinetic solubility is more than 44.3 µg/mL.
Consider `Cc1ccnc(NC(=O)c2cccc(S(=O)(=O)N3CCCC3)c2)c1`, for which the solubility (kinetic) worked out at 43.1 µg/mL (≈ 125 µM).
`O=C(CCc1c[nH]c2ccccc12)N1CCCCCCC1` showed a solubility (kinetic) of 17.9 µg/mL (≈ 62.9 µM).
Turning to `Cc1cccc(C)c1NC(=O)CN1C(=O)C(C)Oc2ccccc21` (stereo unspecified), the kinetic solubility came to 11.6 µg/mL (≈ 35.8 µM).
The compound `CCc1ccc(C(=O)OCC(=O)NCC(F)(F)F)cc1` registered a kinetic solubility of 17.9 µg/mL (≈ 61.9 µM). Compared with the last compound, the solubility kinetic is about 1.5-fold higher.
Regarding `COc1ccc(Nc2nccc(-c3ccc([N+](=O)[O-])cc3)n2)cc1`, the kinetic solubility turned out to be 0.4 µg/mL (≈ 1.24 µM).
Next, `CCCCC(=O)Nc1ccc(C2C(=O)c3ccccc3C2=O)cc1`: 44 µg/mL (≈ 137 µM); `CCC(=O)N(Cc1cc(=O)[nH]c2ccccc12)c1ccc(C)cc1C`: 43.9 µg/mL (≈ 131 µM); `Cn1c(/C(C#N)=C(\O)c2ccc([N+](=O)[O-])cc2)nc2ccccc21`: less than 0.2 µg/mL.
For `O=C(CN1C(=O)NC(c2ccc(F)cc2)C1=O)NC1CCCCC1` (stereo unspecified) the value was more than 50 µg/mL; for `Cc1ccccc1NC(=O)c1sc(NC(=O)C2CC2)nc1C`, 4.8 µg/mL (≈ 15.2 µM).
In turn, `Cc1ccc2oc(=O)c(/C=C(\O)C(C)(C)C)nc2c1` returned a kinetic solubility of 28.3 µg/mL (≈ 109 µM).
In turn, `Cc1ccc(CNC(=O)C2CCCN(c3nc(C)cc(C)n3)C2)cc1` (stereo unspecified) came in with a kinetic solubility of 0.6 µg/mL (≈ 1.77 µM).
`COc1ccccc1C1=NOC(CN2C(=O)c3ccccc3S2(=O)=O)C1` (stereo unspecified) registered a solubility (kinetic) of 34.6 µg/mL (≈ 92.9 µM).
In the case of `COC(=O)c1ccc(NC(=O)Nc2ccc(OC)cc2)cc1`, the kinetic solubility came to 1.4 µg/mL (≈ 4.66 µM).
For `Cc1ccc(C)c(NC(=S)N2CCC(NC(=O)c3ccco3)CC2)c1` the value was 45.4 µg/mL (≈ 127 µM).
The compound `CC(=O)N1CCN=C1SCc1cccc(Cl)c1` came in with a solubility (kinetic) of more than 40.3 µg/mL.
`O=C(Nc1ccccc1Br)c1ccc2nccnc2c1` yielded a kinetic solubility of more than 49.2 µg/mL.
Take `O=C(O)c1nccnc1C(=O)Nc1ccccc1N1CCOCC1`: the kinetic solubility is more than 49.2 µg/mL.
On to `CC(=O)C1=C(C)NC(C)=C(C(C)=O)C1c1ccccc1`, for which the solubility (kinetic) is 35.3 µg/mL (≈ 131 µM).
As for `COC(=O)c1ccc(CN(C)S(=O)(=O)c2cccs2)cc1`, the kinetic solubility was 2.6 µg/mL (≈ 7.99 µM).
In turn, `O=C1CC(c2cccs2)c2ccc3ccccc3c2N1` (stereo unspecified) showed a solubility (kinetic) of less than 0.6 µg/mL.
`S=C(NC1CCCCC1)N1CCc2[nH]c3ccccc3c2C1`: the solubility (kinetic) is 1.3 µg/mL (≈ 4.15 µM).
For `CC(C)(C)C1COc2ccccc2N1C(=O)c1ccccc1Cl` (stereo unspecified) the value was less than 0.7 µg/mL.
`COc1ccccc1NC(=O)CCSc1nc(C)cc(C)n1` showed a kinetic solubility of 38.4 µg/mL (≈ 121 µM).
For `CC(=O)NCCNS(=O)(=O)c1ccc(C)c([N+](=O)[O-])c1` the value was more than 45.2 µg/mL.
Turning to `CNc1nc2c(c(=O)[nH]c(=O)n2C)n1CCCc1ccccc1`, the kinetic solubility is more than 47 µg/mL.
Take `CN(Cc1ccccc1)C(=O)Cc1ccccc1`: the kinetic solubility was 35.5 µg/mL (≈ 148 µM).
Compound `Cc1ccccc1Nc1c(-c2ccccc2)nc2ncccn12` had a solubility (kinetic) of 8.1 µg/mL (≈ 27 µM).
Turning to `NC(=O)c1ccc(NC(=S)NCc2ccco2)cc1`, the kinetic solubility was more than 41.3 µg/mL.
Regarding `N/C(=N\OC(=O)c1ccc(Br)cc1)c1cccc([N+](=O)[O-])c1`, the kinetic solubility came to 0.8 µg/mL (≈ 2.2 µM).
`CC(C)Cn1c(N)c(C(=O)COC(=O)c2ccc(Br)cc2)c(=O)n(C)c1=O` registered a kinetic solubility of 8.8 µg/mL (≈ 20.1 µM).
Next, `C=CCn1c(NC(=O)c2ccc(C)cc2)nc2ccccc21`: less than 0.2 µg/mL; `O=C(NCc1ccccc1)c1ccc(NC(=O)c2ccco2)cc1`: 2 µg/mL (≈ 6.24 µM).
As for `COc1cccc(NS(=O)(=O)c2ccc3c(c2)CCN3C(C)=O)c1`, the kinetic solubility came to 3.3 µg/mL (≈ 9.53 µM).
As to `COc1ccc2nc(C)cc(N3CCC(C(N)=O)CC3)c2c1`, the kinetic solubility came out at 42.3 µg/mL (≈ 141 µM).
`CCC12CN3CCN(CC(C3)/C1=N\NC(=O)c1ccc(F)cc1)C2` had a solubility (kinetic) of more than 49.6 µg/mL.
`CCCC(=O)Nc1cc2c(cc1C(C)=O)OCCO2` came in with a solubility (kinetic) of more than 39.5 µg/mL.
Compound `COc1ccc2[nH]c(C(=O)N3CCNCC3)cc2c1OC` came in with a kinetic solubility of 36.2 µg/mL (≈ 125 µM).
Next, `CC(=O)Nc1cccc(NC(=O)CSc2nnc3ccccn23)c1`: more than 51.2 µg/mL; `O=C(Nc1ccccc1C(=O)Nc1ccccn1)c1ccc([N+](=O)[O-])cc1`: 0.6 µg/mL (≈ 1.66 µM).
As to `COc1ccccc1-c1nc(C#N)c(NCCCn2ccnc2)o1`, the solubility (kinetic) is more than 48.5 µg/mL.
`CCc1ccccc1N1CC(C(=O)Nc2cc(C)on2)CC1=O` (stereo unspecified) returned a kinetic solubility of more than 47 µg/mL.
In turn, `Nn1c(SCC(=O)Nc2ccc3c(c2)OCO3)nncc1=O` registered a kinetic solubility of more than 48.2 µg/mL.
As to `COc1ccc(CN2CC(C(N)=O)Oc3ccccc32)cc1F` (stereo unspecified), the kinetic solubility turned out to be 35.6 µg/mL (≈ 113 µM).
For `S=C(NC1CCCCC1)N1CCn2cccc2C1c1cccnc1` (stereo unspecified) the value was more than 51.1 µg/mL; for `CCn1c(SCCN2CCOCC2)nc2c1c(=O)n(C)c(=O)n2C`, more than 53 µg/mL; for `NC(=O)C1CCN(CC(=O)Nc2ccc3c(c2)OCCO3)CC1`, more than 47.9 µg/mL.
As to `Cc1ccc(NC(=O)CNC(=O)c2ccc3c(c2)OCO3)nc1`, the solubility (kinetic) was found to be 20.5 µg/mL (≈ 65.4 µM).
Regarding `Cc1cc(Cl)ccc1OCCCC(=O)NCCCn1ccnc1`, the kinetic solubility is more than 50.4 µg/mL.
With `Cc1noc(C)c1C(=O)Nc1ccccc1N1CCCC1`, the kinetic solubility came out at 37.6 µg/mL (≈ 132 µM).
On to `C/C(N)=C(/C#N)C(=O)COC(=O)C1CCN(S(=O)(=O)c2cccs2)CC1`, for which the solubility (kinetic) is 10.9 µg/mL (≈ 27.4 µM). Against the preceding compound, the solubility kinetic is about 3.4-fold lower.
`CCc1nc2oc3ccccc3c(=O)c2c(=O)n1-c1ccc(C)cc1` showed a kinetic solubility of 44.2 µg/mL (≈ 133 µM).
In the case of `C=CCC(C=C)[N+]1(CC(=O)OC)CCCCC1.[Br-]` (stereo unspecified), the kinetic solubility was more than 47.7 µg/mL.
The compound `CCOC(=O)C1=C(C)N=C2SC(C)C(=O)N2C1c1ccccc1` (stereo unspecified) registered a kinetic solubility of 48.5 µg/mL (≈ 147 µM).
On to `Cc1cccc(Cn2c(C)nc3ccc([N+](=O)[O-])cc3c2=O)c1`, for which the solubility (kinetic) amounted to 3.6 µg/mL (≈ 11.6 µM).
For the compound `CCc1cccc2c1NC(=O)C21OCCO1`, the kinetic solubility worked out at 27.5 µg/mL (≈ 125 µM). Against the preceding compound, the solubility kinetic is about 7.6-fold higher.
Regarding `O=C(NCCCn1ccnc1)C1CCN(S(=O)(=O)c2cc([N+](=O)[O-])ccc2Cl)CC1`, the kinetic solubility is more than 68.4 µg/mL.
Next, `CCCCN1CC2=C(C1=O)C(c1ccc(O)cc1)NC(=O)N2C` (stereo unspecified): more than 47.3 µg/mL; `CCOP(=O)(OCC)/C(=N/OC(=O)c1ccc(OC)cc1)C(N)=O`: more than 53.7 µg/mL; `CC(C)CC(=O)Nc1ccc(C(=O)COC(=O)C2CCC2)cc1`: 5.3 µg/mL (≈ 16.7 µM).
On to `Cn1cc(Br)c(-c2cccc(N3C(=O)CCCC3=O)c2)n1`, for which the kinetic solubility was more than 52.2 µg/mL.
Consider `C#CC(C)(CC)NC(=O)c1cc2cccc(CC=C)c2oc1=O` (stereo unspecified), for which the kinetic solubility turned out to be 0.8 µg/mL (≈ 2.59 µM).
For `CC(C)N1CC(C(=O)Nc2cccc([N+](=O)[O-])c2)CC1=O` (stereo unspecified) the value was more than 43.7 µg/mL.
For `Cc1ccc(N=CC2=C(O)CC(c3ccccc3Cl)CC2=O)cc1` (stereo unspecified), the solubility (kinetic) is less than 0.7 µg/mL.
In the case of `COC(=O)CCCN1C(=O)c2cccc3cccc(c23)C1=O`, the solubility (kinetic) worked out at 43.6 µg/mL (≈ 147 µM).
Compound `Cc1ccc(CN2CCN(Cc3ccc(O)cc3)CC2CCO)o1` (stereo unspecified) returned a kinetic solubility of more than 49.6 µg/mL.
In the case of `Cc1cccnc1NC(=O)c1ccc(OCc2c(C)noc2C)cc1`, the solubility (kinetic) was found to be 43.7 µg/mL (≈ 130 µM).
On to `Cc1nc2sc(C(N)=O)c(N)c2c(C)c1CC(=O)c1ccccc1`, for which the solubility (kinetic) came to 1.7 µg/mL (≈ 5.01 µM).
On to `CCOC(=O)c1c(NC(=S)Nc2cccnc2)sc(C)c1C`, for which the solubility (kinetic) worked out at 20.1 µg/mL (≈ 59.9 µM).
Take `Nc1no[n+]([O-])c1-c1ccccc1`: the solubility (kinetic) is 24.2 µg/mL (≈ 137 µM).
For `COc1ccc(C(=O)NCc2c(C)oc(C)c2C(=O)O)cc1` the value was more than 45.5 µg/mL; for `CCn1c(C)cc(O)c(C(=O)Nc2cccc(Cl)c2)c1=O`, less than 0.3 µg/mL.
Regarding `COC(=O)c1ccccc1C(=O)N(c1ccccc1)c1ccccc1`, the solubility (kinetic) amounted to 44.4 µg/mL (≈ 134 µM).
In the case of `O=C(c1ccc(F)cc1F)C1CCN(c2ccc([N+](=O)[O-])cn2)CC1`, the solubility (kinetic) is 1.4 µg/mL (≈ 4.03 µM).
Consider `CSc1ncccc1C(=O)OCC(=O)Nc1ccc(Cl)cn1`, for which the kinetic solubility was 3.6 µg/mL (≈ 10.7 µM).
For `COc1ccc(CC(=O)Nc2ccccc2N2CCCC2)cc1OC` the value was more than 51.1 µg/mL; for `CC(CCc1ccccc1)NC(=O)c1cccc(F)c1` (stereo unspecified), 36.6 µg/mL (≈ 135 µM).
For `O=C(NC(=S)Nc1ncccn1)c1ccc(F)cc1` the value was 7.3 µg/mL (≈ 26.4 µM); for `O=c1cc([O-])n(C2CCCCCC2)c(=O)[nH]1.[NH4+]`, 30 µg/mL.
Next, `N#Cc1ccc(C(=O)NC(=S)NC2CCCCC2)cc1`: 21.9 µg/mL (≈ 76.2 µM).
Compound `COC(=O)c1ccc(OCC(O)CNC2CCCC2)cc1.Cl` (stereo unspecified) had a kinetic solubility of 47.7 µg/mL.
The compound `CC(=O)N/C(N)=N/c1nc2cc([N+](=O)[O-])ccc2o1` returned a solubility (kinetic) of 3.8 µg/mL (≈ 14.4 µM). This solubility kinetic is about 13-fold lower than that of the compound before.
On to `COC(=O)CN=Cc1c(O)n(-c2ccc(Cl)cn2)c(=O)c2ccccc12`, for which the kinetic solubility was more than 55.8 µg/mL.
With `CC(=O)c1cccc(NC(=O)NCCc2ccc(Cl)cc2)c1`, the solubility (kinetic) is 1.6 µg/mL (≈ 5.05 µM).
With `CCN(CC)S(=O)(=O)c1ccc(OC(C)C)c(N)c1`, the kinetic solubility is more than 43 µg/mL.
As to `O=C(NCc1ccc(F)cc1)c1cccs1`, the kinetic solubility was 29.9 µg/mL (≈ 127 µM).
In the case of `CNCc1c(OCc2ccc(F)cc2)ccc2ccccc12.Cl`, the kinetic solubility is more than 49.8 µg/mL.

These data come from PubChem BioAssay AID1996.
